Laboratory results taken from PMC8518114, “Safety, tolerability and pharmacokinetics of emodepside, a potential novel treatment for onchocerciasis (river blindness), in healthy male subjects” (British Journal of Clinical Pharmacology, 2021).
Where two headings read alike, the source gives them in different places.

Test: Plasma pharmacokinetics of emodepside, single ascending dose (SAD) and food effect study
Type: in vivo, human
Conditions: for AUC 0–24 /D / C max /D: dose-normalised; for t ½ 0–24 (dominant half-life): terminal slope of log concentration–time (0–24 h) curve; for half-life: ln2/λz, read-out: Terminal t ½ (converted); for Tmax: median (range)
Experimental: Emodepside and placebo were supplied as a LSF and a standard immediate‐release (IR) tablet. The LSF was a 0.1% (w/v) solution containing 1 mg emodepside/mL. Conventional IR tablets containing emodepside in crystalline form were supplied in 2 dosage strengths, 5 and 20 mg, for the single ascending dose (SAD) study.
To preclude any dietary effects on the PK of emodepside, subjects in the fasting cohorts fasted for 9 hours before receiving the IP. Subjects in the fed cohort fasted for 10 hours prior to dosing and received a standard high‐calorie, high‐fat breakfast 30 minutes prior to dosing.
Blood samples (5 mL) were collected by venepuncture or via a cannula into EDTA tubes and immediately placed on ice. Samples were centrifuged at 1500 g for 10 minutes at 4°C. The plasma was aliquoted into 2 polypropylene tubes, which were stored at −20°C. Blood samples for PK analysis were taken at the following time points: • SAD: predose and 0.5, 1, 1.5, 2, 2.5, 3, 4, 5, 6, 8, 12, 24, 36, 48, 72, 96, 120, 144 and 168 hours, and 21 days postdose (cohort 1–9) or predose and 0.5, 1, 3, 6, 8, 12, 24, 36, 48, 72, 96, 120, 144 and 168 hours, and 10, 14, 18 and 21 days postdose (cohort 10). • Multiple ascending dose (MAD), as below: • on Day 1: predose and at 0.25, 0.5, 1, 1.5, 2, 2.5, 3, 4, 6, 8, 12 and 15 hours postdose • on Days 2–9: before the morning dose • on Day 10: before and at 0.25, 0.5, 1, 1.5, 2, 2.5, 3, 4, 6, 8, 12 and 15 hours • on Days 11, 12, 13, 14, 15, 18, 21, 24 and 30.
Emodepside plasma concentrations were determined by a validated high performance liquid chromatography–tandem mass spectrometry assay, using a Alltima C18 5 μm 150 mm x 2.1 mm column and an Applied Biosystems API4000 Turbo Ion Spray detector using positive ion mode. Analyst version 1.3.2 or 1.6.3 software, obtained from AB Sciex UK Ltd, Warrington, UK was used for chromatogram data analysis and quantitative calculations. Deuterated emodepside‐D16 was used as the internal standard. The lower limit of quantitation for emodepside in plasma was 1 ng/mL. Values below this limit were not used to calculate the PK parameters, except values that were below the limit of quantification before Cmax, which were set to zero.
The highest observed plasma concentration (Cmax) was determined directly from concentration–time data, as was the time to reach maximum plasma concentration (tmax). The area under the plasma concentration–time curve from time zero (predose) to the time of last quantifiable concentration (AUC0‐last) was calculated using the linear‐log trapezoidal rule. Elimination half‐life (t1/2) was calculated by the equation ln2/λz.
Statistical analyses were performed using SAS version 9.3 (Cary, NC, USA). Demographic data and baseline characteristics were listed and summarised. […] PK parameters were derived from plasma concentration vs. time data using a noncompartmental analysis in Phoenix WinNonlin version 7 (Certara Inc., Princeton, NJ, USA). Plasma concentration vs. time data and PK parameters were listed, and summarised by treatment, using descriptive statistics. Mean concentrations were calculated only if at least ⅔ of the individual concentrations were above the lower limit of quantification. […] Planned sampling times were used to summarise plasma‐concentration data; actual sampling times were used in the derivation of PK parameters.

[1] = SAD, single oral 1 mg LSF fasting, mean
[2] = SAD, single oral 2.5 mg LSF fasting, mean
[3] = SAD, single oral 5 mg IRT fasting, mean
[4] = SAD, single oral 5 mg LSF fasting, mean
[5] = SAD, single oral 10 mg LSF Fed, mean
[6] = SAD, single oral 10 mg LSF fasting, mean
[7] = SAD, single oral 20 mg IRT fasting, mean
[8] = SAD, single oral 20 mg LSF fasting, mean
[9] = SAD, single oral 40 mg LSF fasting, mean
[10] = human, in vivo, po, 1 mg, SAD, single oral 1 mg LSF fasting, plasma, HPLC-MS/MS, mean
[11] = human, in vivo, po, 2.5 mg, SAD, single oral 2.5 mg LSF fasting, plasma, HPLC-MS/MS, mean
[12] = human, in vivo, po, 5 mg, SAD, single oral 5 mg IRT fasting, plasma, HPLC-MS/MS, mean
[13] = human, in vivo, po, 5 mg, SAD, single oral 5 mg LSF fasting, plasma, HPLC-MS/MS, mean
[14] = human, in vivo, po, 10 mg, SAD, single oral 10 mg LSF Fed, plasma, HPLC-MS/MS, mean
[15] = human, in vivo, po, 10 mg, SAD, single oral 10 mg LSF fasting, plasma, HPLC-MS/MS, mean
[16] = human, in vivo, po, 20 mg, SAD, single oral 20 mg IRT fasting, plasma, HPLC-MS/MS, mean
[17] = human, in vivo, po, 20 mg, SAD, single oral 20 mg LSF fasting, plasma, HPLC-MS/MS, mean
[18] = human, in vivo, po, 40 mg, SAD, single oral 40 mg LSF fasting, plasma, HPLC-MS/MS, mean

**Q.** What does the source list for `CC(C)C[C@H]1C(=O)O[C@H](Cc2ccc(N3CCOCC3)cc2)C(=O)N(C)[C@@H](CC(C)C)C(=O)O[C@H](C)C(=O)N(C)[C@@H](CC(C)C)C(=O)O[C@H](Cc2ccc(N3CCOCC3)cc2)C(=O)N(C)[C@@H](CC(C)C)C(=O)O[C@H](C)C(=O)N1C` [emodepside]?
**A.** Plasma emodepside concentrations lower in the first 24 hours postdose, based on geometric mean Cmax (SAD, all dose levels and both formulations): approximately 90%; AUC0-last in fed relative to fasting conditions (SAD, single 10-mg dose of the LSF): not statistically different; AUC 0–24 /D [1]: 100 [h.ng/mL]/mg; C max /D [1]: 18.6 [ng/mL]/mg; t ½ 0–24 (dominant half-life) [1]: 8.45 h; AUC 0–24 /D [2]: 100 [h.ng/mL]/mg; C max /D [2]: 15.0 [ng/mL]/mg; t ½ 0–24 (dominant half-life) [2]: 10.6 h; AUC 0–24 /D [3]: 36.5 [h.ng/mL]/mg; C max /D [3]: 5.15 [ng/mL]/mg; AUC 0–24 (SAD, single oral 5 mg IRT fasting, plasma, HPLC-MS/MS, mean): 183 ng·h/mL; t ½ 0–24 (dominant half-life) [3]: 10.8 h; AUC 0–24 /D [4]: 104 [h.ng/mL]/mg; C max /D [4]: 18.4 [ng/mL]/mg; AUC 0–24 (SAD, single oral 5 mg LSF fasting, plasma, HPLC-MS/MS, mean): 522 ng·h/mL; t ½ 0–24 (dominant half-life) [4]: 11.6 h; AUC 0–24 /D [5]: 67.3 [h.ng/mL]/mg; C max /D [5]: 7.19 [ng/mL]/mg; t ½ 0–24 (dominant half-life) [5]: 11.1 h; AUC 0–24 /D [6]: 99.6 [h.ng/mL]/mg; C max /D [6]: 17.2 [ng/mL]/mg; t ½ 0–24 (dominant half-life) [6]: 10.9 h; AUC 0–24 /D [7]: 11.2 [h.ng/mL]/mg; C max /D [7]: 1.51 [ng/mL]/mg; AUC 0–24 (SAD, single oral 20 mg IRT fasting, plasma, HPLC-MS/MS, mean): 223 ng·h/mL; t ½ 0–24 (dominant half-life) [7]: 11.3 h; AUC 0–24 /D [8]: 95.3 [h.ng/mL]/mg; C max /D [8]: 15.3 [ng/mL]/mg; AUC 0–24 (SAD, single oral 20 mg LSF fasting, plasma, HPLC-MS/MS, mean): 1910 ng·h/mL; t ½ 0–24 (dominant half-life) [8]: 10.5 h; AUC 0–24 /D [9]: 103 [h.ng/mL]/mg; C max /D [9]: 14.9 [ng/mL]/mg; AUC last (SAD, single oral 40 mg LSF fasting, plasma, HPLC-MS/MS, mean): 16 400 h.ng/mL; Half-life during the first 24 hours after dosing (distribution phase) (healthy subjects, oral, across the 2 studies): around 11 hours; AUC 0–24 h [10]: 100 ng·h/mL; AUC(0-t) [10]: 182 ng·h/mL; Cmax [10]: 18.6 ng/mL; half-life (human, in vivo, po, 1 mg, SAD, single oral 1 mg LSF fasting, plasma, mean): 42.7 h; Tmax (human, in vivo, po, 1 mg, SAD, single oral 1 mg LSF fasting, plasma): 1 h; AUC 0–24 h [11]: 250 ng·h/mL; AUC(0-t) [11]: 845 ng·h/mL; Cmax [11]: 37.6 ng/mL; half-life (human, in vivo, po, 2.5 mg, SAD, single oral 2.5 mg LSF fasting, plasma, mean): 449 h; Tmax (human, in vivo, po, 2.5 mg, SAD, single oral 2.5 mg LSF fasting, plasma): 1 h; F rel (human, in vivo, po, 5 mg): 35%; AUC(0-t) [12]: 501 ng·h/mL; Cmax [12]: 25.7 ng/mL; half-life (human, in vivo, po, 5 mg, SAD, single oral 5 mg IRT fasting, plasma, mean): 267 h; Tmax (human, in vivo, po, 5 mg, SAD, single oral 5 mg IRT fasting, plasma): 2 h; AUC(0-t) [13]: 1700 ng·h/mL; Cmax [13]: 92.1 ng/mL; half-life (human, in vivo, po, 5 mg, SAD, single oral 5 mg LSF fasting, plasma, mean): 415 h; Tmax (human, in vivo, po, 5 mg, SAD, single oral 5 mg LSF fasting, plasma): 1 h; AUC 0–24 h [14]: 673 ng·h/mL; AUC(0-t) [14]: 3390 ng·h/mL; Cmax [14]: 71.9 ng/mL; half-life (human, in vivo, po, 10 mg, SAD, single oral 10 mg LSF Fed, plasma, mean): 531 h; Tmax (human, in vivo, po, 10 mg, SAD, single oral 10 mg LSF Fed, plasma): 2.5 h; AUC 0–24 h [15]: 996 ng·h/mL; AUC(0-t) [15]: 3070 ng·h/mL; Cmax [15]: 172 ng/mL; half-life (human, in vivo, po, 10 mg, SAD, single oral 10 mg LSF fasting, plasma, mean): 365 h; Tmax (human, in vivo, po, 10 mg, SAD, single oral 10 mg LSF fasting, plasma): 1 h; AUC(0-t) [16]: 667 ng·h/mL; Cmax [16]: 30.2 ng/mL; half-life (human, in vivo, po, 20 mg, SAD, single oral 20 mg IRT fasting, plasma, mean): 348 h; Tmax (human, in vivo, po, 20 mg, SAD, single oral 20 mg IRT fasting, plasma): 2 h; AUC(0-t) [17]: 7480 ng·h/mL; Cmax [17]: 306 ng/mL; half-life (human, in vivo, po, 20 mg, SAD, single oral 20 mg LSF fasting, plasma, mean): 590 h; Tmax (human, in vivo, po, 20 mg, SAD, single oral 20 mg LSF fasting, plasma): 1.5 h; AUC 0–24 h [18]: 4110 ng·h/mL; Cmax [18]: 595 ng/mL; half-life (human, in vivo, po, 40 mg, SAD, single oral 40 mg LSF fasting, plasma, mean): 392 h; Tmax (human, in vivo, po, 40 mg, SAD, single oral 40 mg LSF fasting, plasma): 1.05 h; Frel, relative bioavailability IR tablet vs. LSF (in vivo): 11.71%
